The conditions of series [1]: currently used anesthetics; cited from earlier work.
The nature of series [2]: degradation by desiccated (dry) carbon dioxide absorbents at 40° C. Type of series: physicochemical. Particulars: for % Degr Per min: 40° C. The procedure: Drying was accomplished by placing wet absorbent in a large flask receiving 1-1.5 L/min of oxygen (dry; no water vapor) for 4 days. The flask rested in an incubator at 50° C. The absorbent contained in the flask was weighed repeatedly (to essentially constant weight loss).
As above, all studies were conducted at 40° C. Desiccated (dry) absorbent (grams indicated) was placed in a 600 mL flask, and 100 or 200 mL of anesthetic at the indicated concentration was inserted. […] Values for % degraded per minute are given as the average and standard deviation (SD).

Series [3] can be described thus: degradation by wet (normal) carbon dioxide absorbents at 40° C., gas chromatography. It counts as physicochemical. Particulars: for % Degraded per Minute: 100 mL anesthetic. The procedure: Nine milligrams of the compound of formula (1) were placed in each of three 600 ml flasks containing 100 g of soda lime and maintained at 40° C. The 40° C. temperature is chosen to mimic that generated by the exothermic reaction of carbon dioxide with absorbent in a system wherein all gases are rebreathed. Soda lime contains sodium hydroxide as well as approximately 80% calcium hydroxide. A control flask contained the compound of formula (1) but no soda lime. Samples were taken at various timepoints and analyzed by gas chromatography using a flame ionization detector. […] It will be noted that the Y-axis is on a log scale so that the depletion is quite dramatic.
The procedure was identical to that of Example 1 except that an absorbent containing only calcium hydroxide as the base was used. This absorbent is marketed under the trademark Amsorb®.
The dramatic decrease in degradation with substitution of Amsorb® for soda lime applies to other absorbents that are composed of calcium hydroxide but contain minimal or no monovalent bases, LoFloSorb® and Drägersorb® Free. The general procedure of Example 1 was repeated using these two commercially available absorbents. […] All studies were conducted at 40° C. In all cases, the absorbents were “wet” (contained approximately 15% water by weight). The data in the table were obtained using the protocol set forth above wherein 100 g of absorbent was placed in a 600 mL flask, and 100 mL of anesthetic at the indicated concentration was inserted. Each study was done in triplicate. […] Values for % degraded per minute are given as the average and standard deviation (SD).

For series [4] the following is noted: Strum et al. 1987; cited from earlier work.
For series [5], the system named is mice and rats. As to the kind of experiment: recovery, CNS irritation and survival after anesthesia in mice and rats. It counts as in vivo.
For series [6], the system named is mice. Description: loss of righting reflex in mice. Type of series: in vivo. The note with it: four mice, closed system with Amsorb, rectal temperature 30° C. (hypothermic). The text has this: (§1) Clearly another significant property of an anesthetic is its ability to effect anesthesia in the first place. […] The minimum alveolar concentration of anesthetic at which 50% of subjects move in response to a noxious stimulus is designated “MAC.” In the case of 30-60 year old adult humans, the MAC values are 0.06 atm (i.e., 6%) for desflurane, 0.0115 atm (1.15%) for isoflurane and 0.0185 atm (1.85%) for sevoflurane). An alternative measurement similar to MAC that is based on the righting reflex in mice gave a value for the compound of formula (1) of 0.05 atm (5%). The value obtained in this alternative assay approximates but is usually a bit less than MAC.
In a closed system employing Amsorb® as the absorbent, four mice were anesthetized using the compound of formula (1). The righting reflex was lost at 3.22±0.54% of formula (1). The rectal temperature of the mice at the end of this experiment was 30° C. which is hypothermic for mice. Hypothermia decreases anesthetic requirement (Eger, E. I. II and Johnson, B. H.; Anesth Analg (1987) 66:974-976), and thus this experiment probably underestimated the concentration producing the loss of righting reflex.

Series [7] deals with rats. Description: MAC in rats. Particulars: five rats, 37° C. (normothermic). It counts as in vivo.
From the text: as §1
In an additional experiment, conducted at 37° C. which is normothermic, five rats were anesthetized using the compound of formula (1) and the MAC value found was 8.34±0.84%.

A short description of series [8]: blood/gas partition coefficient. Type of series: physicochemical. The text has this: One highly desirable property of an inhaled anesthetic is that it permits rapid recovery once the administration of the anesthetic is halted. Typically, during surgical procedures, the subject is continuously administered the anesthetic, and it is helpful if the subject can recover as quickly as possible as soon as administration is stopped. The length of time required for such recovery is a function of the solubility of the anesthetic in the blood, which mimics solubility in the brain. Thus, anesthetics with very low blood/gas partition coefficients are highly desirable. The blood/gas partition coefficient for desflurane is 0.45; for sevoflurane is 0.65 and for isoflurane is even higher. The blood/gas partition coefficient for the compound of formula (1) is only 0.21, making it highly advantageous as permitting more rapid recovery than any of the currently used anesthetics.

The subject of series [9] is murine models. Particulars: cited from earlier work.
Setting [10] is: dry LoFloSorb 50 g, 200 mL injected.
Where [11] appears, read: dry Amsorb 100 g, 100 mL injected.
Setting [12] is: dry Drägersorb Free 25 g, 100 mL injected.
Setting [13] is: dry LoFloSorb 25 g, 100 mL injected.

The structures appear in SMILES notation. Where two headings read alike, the source gives them in different places.

Consider `FC(F)OC(F)C(F)(F)F` (centres unmarked) [Desflurane, desflurane, reference compound], for which, in series [1], the blood/gas partition coefficient is reported as 0.45. Also, the “% Degr Per min” value in series [2] (dry Amsorb 50 g, 100 mL injected) is recorded as −0.1%; in series [2] (setting [10]), 0.5%.
For the compound `FCOC(C(F)(F)F)C(F)(F)F` [Sevoflurane, sevoflurane, reference compound], in series [3] (wet Drägersorb Free 100 g), the “% Degraded per Minute” value was −0.058%. In [1], the blood/gas partition coefficient is listed as 0.65. Besides, the entries for the “% Degr Per min” value in series [2] (setting [11]), in [2] (setting [12]) and in [2] (setting [13]) were 5.01%, 0.52% and 38.5%, respectively. For the same compound, in [4], the “degradation in soda lime” value is on record as 13 % per hour.
For `FC(F)OC(C(F)(F)F)C(F)(F)F` [Formula (1), CHF2—O—CH(CF3)2], the survival result in series [5] (24 hours after anesthesia, mice and rats) is reported as “All survived for 24 hours in apparent good health”. Besides, in series [5] (mice and rats), the “time to awake after administration of the anesthetic was stopped” value is 2 to 3 min. In addition, the “irritation of the central nervous system” value in [5] (mice and rats anesthetized) is reported as “In neither of these cases was there irritation of the central nervous system”. The “concentration at which the righting reflex was lost” value in series [6] is 3.22±0.54%. Moreover, in [7], the MAC value was determined as 8.34±0.84%. Also, the “degradation in flasks containing soda lime (FIG. 2)” value in series [3] (9 mg, 100 g soda lime, 600 ml flask, after 30 min) was “essentially complete degradation”. For the same compound, the “percentage of compound in the flask (FIG. 3)” value in series [3] (100 g Amsorb (calcium hydroxide only), 30 min interval) is “remained constant”. Moreover, the “% Degraded per Minute” value in series [3] (wet Amsorb 100 g) is on record as −0.05%; in series [3] (wet Drägersorb Free 100 g) it was 0.102%; in series [3] (wet LoFloSorb 100 g), 0.2%; in series [3] (wet Soda Lime 100 g), 25.0%. The blood/gas partition coefficient in [8] came out at 0.21. The anesthetic quality result in series [9] (Speers et al., J. Med. Chem. 1971) was “good anesthetic”. The side effects entry in series [9] (murine models, Speers et al. 1971) is “undesirable side effects”. Besides, the “% Degr Per min” value is 0.7% in series [2] (dry Amsorb 20 g, 100 mL injected); 2.7% in series [2] (setting [11]); 0.28% in [2] (setting [12]); 55.0% in series [2] (setting [13]); 40.7% in [2] (setting [10]). Also, the “rate of degradation on repeated addition of anesthetic (FIG. 4)” value in [2] (dry Amsorb, three flasks, repeated additions) was “progressively decreased”.
